The record followed here is US8399683B2 (TetraLogic Pharmaceuticals, priority 2008, dated 2013).

One test addresses T1, XIAP BIR-3 (Homo sapiens, UniProt P98170).
T1 construct: 40 nM of the respective IAP BIR3
Briefly: Fluorescence polarization binding affinity to XIAP BIR-3 (competition with AbuRPF-K(5-Fam)-NH2). The settings on record: 5 nM labeled peptide, 40 nM BIR3, 15 min at RT, pH 7.5; reported as ranges. A digest of the protocol:
(§1)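 Test peptides at varied concentrations competed with 5 nM fluorescent Smac-mimetic tracer for 40 nM BIR3 domain, 15 min at RT in 0.1M potassium phosphate pH 7.5 with […] bovine g-globulin. Polarization (mP) read at 485/520 nm; KD reported in bins (A=<0.1 μM, B=0.1–1 μM, C>1–10 μM, D=>10 μM).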
(Fluorescence polarisation rises when a labelled molecule tumbles more slowly, as on binding a larger partner.)

A further test concerns the target cIAP-1 BIR-3 (Homo sapiens, UniProt Q13490). Briefly: Fluorescence polarization binding affinity to cIAP-1 BIR-3 (competition with AbuRPF-K(5-Fam)-NH2). The settings on record: 5 nM labeled peptide, 40 nM BIR3, 15 min at RT, pH 7.5; reported as ranges; read-out: KD (c-IAP-1 BIR3). A digest of the protocol:
as §1

The next test deals with SK-OV-3 cells. Kind of test: Growth inhibition of ovarian cancer cell line SK-OV-3 (MTT assay, cell survival). Format: cell-based. To be noted: Homo sapiens, drug concentration that results in 50% cell survival, 72 hrs incubation, reported as ranges. A digest of the protocol:
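After overnight seeding in McCoy's medium with 10% FBS, SK-OV-3 cells were exposed to compound at 0.003-10 μM for 72 hrs at 37° C. MTT was then added for 3 h, with DMSO solubilization and OD read at 535 nm. CC50 is the concentration giving 50% survival relative to untreated control, reported as ranges.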

Molecules are shown by their SMILES.

T1 sequence (P98170 241-356 limits assumed): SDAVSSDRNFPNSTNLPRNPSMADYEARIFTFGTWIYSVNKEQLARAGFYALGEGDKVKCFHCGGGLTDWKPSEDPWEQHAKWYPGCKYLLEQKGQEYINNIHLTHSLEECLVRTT
cIAP-1 BIR-3, sequence (Q13490 266-352 limits assumed): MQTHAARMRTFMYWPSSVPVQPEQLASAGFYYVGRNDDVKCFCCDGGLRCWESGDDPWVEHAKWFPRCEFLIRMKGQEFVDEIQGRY

The term Kd denotes the concentration at which binding is half-saturated. The term CC50 denotes the concentration giving 50% cytotoxicity. Lower therefore signals greater toxicity to the cells. Consider `CN[C@@H](C)C(=O)N[C@H](C(=O)N1C[C@@H](O)[C@H]2NC[C@@H](c3c[nH]c4cc(F)ccc34)[C@H]21)C1CCCCC1` [Example 86, N-{1-Cyclohexyl-2-[6R-(6-fluoro-1H-indol-3-yl)-3-hydroxy-hexahydro-pyrrolo[3,2-b]pyrrol-1-yl]-2-oxo-ethyl}-2-methylamino-propionamide], for which the results for the Kd on XIAP BIR-3 and on cIAP-1 BIR-3 were > 10000 nM and 100 to 1000 nM, respectively. In addition, in the test on SK-OV-3 cells, the half-maximal cytotoxic concentration (CC50) was > 10000 nM.
Regarding `CN[C@@H](C)C(=O)N[C@H](C(=O)N1CC[C@H]2NC[C@@H](c3c[nH]c4cc(F)ccc34)[C@H]21)C1CCCCC1` [Example 87], the results for the Kd on XIAP BIR-3 and at cIAP-1 BIR-3 were > 10000 nM and 1000 to 10000 nM, respectively. In the test on SK-OV-3 cells, the CC50 is > 10000 nM.
Take `C[C@H](N)C(=O)N[C@H](C(=O)N1CC[C@H]2NC[C@H](c3c[nH]c4cc(F)ccc34)[C@H]21)C1CCCCC1` [Example 88]: the Kd at XIAP BIR-3 and on cIAP-1 BIR-3 was < 100 nM each time. The CC50 with SK-OV-3 cells was > 10000 nM.
In the case of `CN[C@@H](C)C(=O)N[C@H](C(=O)N1CC[C@H]2NC[C@@H](c3c[nH]c4ccccc34)[C@H]21)[C@@H](C)OC` [Example 89], the Kd on XIAP BIR-3 is > 10000 nM; on cIAP-1 BIR-3 it was 100 to 1000 nM. In the test on SK-OV-3 cells, the CC50 was > 10000 nM.
As to `CN[C@@H](C)C(=O)N[C@H](C(=O)N1CC[C@H]2NC[C@H](c3c[nH]c4ccccc34)[C@H]21)[C@@H](C)OC` [Example 90], the Kd on XIAP BIR-3 and at cIAP-1 BIR-3 was < 100 nM each time. Further, the CC50 in the test on SK-OV-3 cells is 1000 to 10000 nM.
`CN[C@@H](C)C(=O)N[C@H](C(=O)N1CC[C@H]2NC[C@H](c3cn(Cc4ccccc4)c4cc(F)ccc34)[C@H]21)C1CCCCC1` [Example 91]: the Kd on XIAP BIR-3 and at cIAP-1 BIR-3 was < 100 nM throughout. The molecule further came in with a CC50 in the test with SK-OV-3 cells of 100 to 1000 nM.
Take `C[C@H](N)C(=O)N[C@H](C(=O)N1CC[C@H]2NC[C@H](c3cn(Cc4ccccc4)c4cc(F)ccc34)[C@H]21)C1CCCCC1` [Example 92]: the Kd on XIAP BIR-3 and at cIAP-1 BIR-3 was < 100 nM each time. This molecule also gave a CC50 with SK-OV-3 cells of 1000 to 10000 nM.
For the molecule `CO[C@H](C)[C@H](NC(=O)[C@H](C)N)C(=O)N1CC[C@H]2NC[C@H](c3cn(Cc4ccccc4)c4cc(F)ccc34)[C@H]21` [Example 93], the Kd at XIAP BIR-3 and on cIAP-1 BIR-3 was < 100 nM throughout. In the test with SK-OV-3 cells, the CC50 was in the range of 1000 to 10000 nM.
Turning to `CC(=O)N1C[C@H](c2c[nH]c3cc(F)ccc23)[C@@H]2[C@H]1CCN2C(=O)[C@@H](NC(=O)[C@H](C)N)C1CCCCC1` [Example 94], the Kd at XIAP BIR-3 and on cIAP-1 BIR-3 was < 100 nM in each case. Moreover, the CC50 in the test with SK-OV-3 cells was in the range of 1000 to 10000 nM.
Consider `CN[C@@H](C)C(=O)NC(C)C(=O)N1CC[C@@H]2[C@H]1[C@@H](c1c[nH]c3cc(F)ccc13)CN2C(C)=O` (stereo partly drawn) [Example 95], for which the dissociation constant (Kd) on XIAP BIR-3 and at cIAP-1 BIR-3 was < 100 nM in each case. The same molecule came in with a CC50 in the test with SK-OV-3 cells of 100 to 1000 nM.
On to `CN[C@@H](C)C(=O)N[C@H](C(=O)N1CC[C@@H]2[C@H]1[C@H](c1c[nH]c3cc(F)ccc13)CN2C(C)=O)C1CCCCC1` [Example 96], for which the Kd at XIAP BIR-3 was 1000 to 10000 nM; on cIAP-1 BIR-3, 100 to 1000 nM. The CC50 in the test with SK-OV-3 cells fell in the range of 1000 to 10000 nM.
Consider `CN[C@@H](C)C(=O)N[C@H](C(=O)N1CC[C@@H]2[C@H]1[C@@H](c1c[nH]c3ccccc13)CN2C1CCCCC1)[C@@H](C)OC` [Example 97], for which the Kd was 1000 to 10000 nM on XIAP BIR-3 and 100 to 1000 nM on cIAP-1 BIR-3. The CC50 with SK-OV-3 cells was 100 to 1000 nM.
With `CN[C@@H](C)C(=O)N[C@H](C(=O)N1CC[C@@H]2[C@H]1[C@@H](c1c[nH]c3ccccc13)CN2C(C)C)C1CCCCC1` [Example 98], the dissociation constant (Kd) was 1000 to 10000 nM at XIAP BIR-3 and 100 to 1000 nM at cIAP-1 BIR-3. Further, in the test on SK-OV-3 cells, the CC50 fell in the range of 100 to 1000 nM.
Regarding `CN[C@@H](C)C(=O)N[C@H](C(=O)N1CC[C@@H]2[C@H]1[C@@H](c1c[nH]c3cc(F)ccc13)CN2C(=O)OCc1ccccc1)C1CCCCC1` [Example 99], the dissociation constant Kd at XIAP BIR-3 and on cIAP-1 BIR-3 was < 100 nM in each case. Moreover, in the test on SK-OV-3 cells, the CC50 is < 100 nM.
On to `CN[C@@H](C)C(=O)N[C@H](C(=O)N1CC[C@@H]2[C@H]1[C@@H](c1c[nH]c3cc(F)ccc13)CN2Cc1ccccc1)[C@@H](C)OC` [Example 100], for which the dissociation constant (Kd) on XIAP BIR-3 and at cIAP-1 BIR-3 was < 100 nM throughout. Further, the CC50 in the test with SK-OV-3 cells is < 100 nM.
For `CN[C@@H](C)C(=O)N[C@H](C(=O)N1CC[C@@H]2[C@H]1[C@@H](c1c[nH]c3cc(F)ccc13)CN2Cc1ccccc1)[C@@H](C)O` [Example 101], the Kd at XIAP BIR-3 was 100 to 1000 nM; at cIAP-1 BIR-3, < 100 nM. Moreover, the CC50 in the test on SK-OV-3 cells was in the range of 100 to 1000 nM.
For the molecule `CN[C@@H](C)C(=O)N[C@@H](COC)C(=O)N1CC[C@@H]2[C@H]1[C@@H](c1c[nH]c3cc(F)ccc13)CN2Cc1ccccc1` [Example 102], the Kd lay in the range of 1000 to 10000 nM at XIAP BIR-3 and 100 to 1000 nM on cIAP-1 BIR-3. The CC50 with SK-OV-3 cells is 1000 to 10000 nM.
Regarding `CN[C@@H](C)C(=O)N[C@@H](CO)C(=O)N1CC[C@@H]2[C@H]1[C@@H](c1c[nH]c3cc(F)ccc13)CN2Cc1ccccc1` [Example 103], the Kd fell in the range of 1000 to 10000 nM on XIAP BIR-3 and 100 to 1000 nM at cIAP-1 BIR-3. For the same molecule, the cytotoxic concentration (CC50) in the test with SK-OV-3 cells was 1000 to 10000 nM.
Regarding `CN[C@@H](C)C(=O)N[C@H](C(=O)N1CC[C@@H]2[C@H]1[C@@H](c1c[nH]c3cc(F)ccc13)CN2Cc1ccccc1)C(C)(C)C` [Example 104], the Kd at XIAP BIR-3 and at cIAP-1 BIR-3 was < 100 nM each time. For the same molecule, the CC50 with SK-OV-3 cells is < 100 nM.
As to `CN[C@@H](C)C(=O)N[C@H](C(=O)N1CC[C@@H]2[C@H]1[C@@H](c1c[nH]c3cc(F)ccc13)CN2Cc1ccccc1)C(C)C` [Example 105], the Kd on XIAP BIR-3 was 100 to 1000 nM; on cIAP-1 BIR-3 it was < 100 nM. The CC50 in the test on SK-OV-3 cells was < 100 nM.
Take `CC[C@H](NC(=O)[C@H](C)NC)C(=O)N1CC[C@@H]2[C@H]1[C@H](c1c[nH]c3cc(F)ccc13)CN2Cc1ccccc1` [Example 106]: the results for the Kd on XIAP BIR-3 and on cIAP-1 BIR-3 were > 10000 nM and 100 to 1000 nM, respectively. In the test on SK-OV-3 cells, this molecule showed a half-maximal cytotoxic concentration (CC50) of 1000 to 10000 nM.
The like results for `CN[C@@H](C)C(=O)N[C@H](C(=O)N1CC[C@@H]2[C@H]1[C@@H](c1c[nH]c3cc(F)ccc13)CN2Cc1ccccc1)C1CCCCC1` [Example 107] were, in that order, < 100 nM, < 100 nM and 100 to 1000 nM.
For `CN[C@@H](C)C(=O)N[C@H](C(=O)N1CC[C@@H]2[C@H]1CCN2C(=O)OCc1ccccc1)C1CCCCC1` [Example 108, 4-[2-Cyclohexyl-2-(2-methylamino-propionylamino)-acetyl]hexahydro-pyrrolo[3,2-b]pyrrole-1-carboxylic acid benzyl ester] the same measures were 1000 to 10000 nM, < 100 nM and 100 to 1000 nM.
For `CN[C@@H](C)C(=O)N[C@H](C(=O)N1CC[C@H]2NCC[C@H]21)C1CCCCC1` [Example 109, N-[1-Cyclohexyl-2-(hexahydro-pyrrolo[3,2-b]pyrrol-1-yl)-2-oxo-ethyl]-2-methylamino-propionamide] the same measures were 1000 to 10000 nM, 100 to 1000 nM and > 10000 nM.
Regarding `CNC(C)C(=O)NC(C(=O)N1CCC2C1CCN2C(=O)C(NC(=O)C(C)NC)C1CCCCC1)C1CCCCC1` (stereo not drawn) [Example 110, N-(1-Cyclohexyl-2-{4-[2-cyclohexyl-2-(2-methylamino-propionylamino)-acetyl]-hexahydro-pyrrolo[3,2-b]pyrrol-1-yl}-2-oxo-ethyl)-2-methylamino-propionamide], the values for the Kd on XIAP BIR-3 and on cIAP-1 BIR-3 were 1000 to 10000 nM and < 100 nM, respectively. Also, the CC50 with SK-OV-3 cells was in the range of 1000 to 10000 nM.
Turning to `CNC(C)C(=O)NC(C(=O)N1CC(c2c[nH]c3cc(F)ccc23)C2C1CCN2C(=O)C(NC(=O)C(C)NC)C1CCCCC1)C1CCCCC1` (stereo not drawn) [Example 111, N-{1-Cyclohexyl-2-[4-[2-cyclohexyl-2-(2-methylamino-propionylamino)-acetyl]-6-(6-fluoro-1H-indol-3-yl)-hexahydro-pyrrolo[3,2-b]pyrrol-1-yl]-2-oxo-ethyl}-2-methylamino-propionamide], the Kd at XIAP BIR-3 and at cIAP-1 BIR-3 was < 100 nM each time. The CC50 in the test on SK-OV-3 cells is < 100 nM.
